Source: patent publication US20170246194A1, “Acetaminophen-Containing Analgesic Formulations With Reduced Hepatotoxicity” (Purdue Pharma L.P., priority 2014, published 2017)

What was measured:
male C3HeB/FeJ mice = assay: Toxicity in mice: acetaminophen-induced liver injury, plasma ALT activity; format: in vivo; details: fasted mice; for protection of the liver against acetaminophen damage (maximal ALT elevation): cimetidine 20% and/or methionine 30% of the acetaminophen dose
Description: This example is performed as described in Saito, Hepatology, 51(1):246, 2010, which is incorporated by reference herein.
At selected times after acetaminophen treatment, groups of animals are killed by way of cervical dislocation under anesthesia. Blood is drawn from the vena cava into heparinized syringes and centrifuged. The plasma is used for determination of alanine aminotransferase (ALT) activities. Plasma ALT activities are determined and expressed as international units per liter.
After establishing the model in the pilot phase, five experimental groups are studied. The groups receive vehicles containing the ingredients noted in Table B. If the methionine or cimetidine is ineffective or is fully protective, the doses are adjusted and the experiment repeated until the relative contribution of each relative to the combination is determined.
The outcome is maximal ALT elevation. Data are expressed as the mean±standard error. Comparison between groups is performed analysis of variance, or alternative non-parametric procedures if the data is not normally distributed. P<0.05 is considered significant.

[1] = normally, in man; cited from earlier work
volunteers = details: human volunteers, given with acetaminophen 4 grams a day
Description: All subjects participate in an initial multiple dose study of 1 gram of acetaminophen given four times a day (four grams a day), protected by twice a day transaminase determinations. […] Subjects with no elevation are terminated from the study. Subjects rest for three weeks after the first phase and then return for the second phase.
Subjects dose at 4 grams of acetaminophen a day. They have twice daily blood samples for serum transaminases, and proceed to the next day's dosing only if their most recent transaminase values are no more than 3 times the upper limit of normal.
The outcome variable is maximal transaminase elevations for each subject relative to baseline tested by ANOVA for each formulation. The test article is hepato-protective if there is a significant (P<0.05) difference in outcome for the formulation.
Subjects with transaminase elevations are followed at intervals to ensure that their values return to normal.

## CC(=O)Nc1ccc(O)cc1 [acetaminophen, N-acetyl-p-aminophenol]
Male C3HeB/FeJ mice; acetaminophen alone, intraperitoneal single dose
  liver injury (maximal ALT elevation): causes liver injury
[1]
  ingested dose metabolized to the non-toxic sulfate or glucuronide: 96%

## CSCC[C@H](N)C(=O)O [methionine]
Male C3HeB/FeJ mice
  protection of the liver against acetaminophen damage (maximal ALT elevation): protected against damage
volunteers
  serious adverse effects: no additional serious adverse effects

## CN/C(=N/CCSCc1nc[nH]c1C)NC#N [cimetidine]
Male C3HeB/FeJ mice
  protection of the liver against acetaminophen damage (maximal ALT elevation): protected against damage
volunteers
  serious adverse effects: no additional serious adverse effects
